Tests used:
LXRα [1] = biological target: T1, LXRα (Homo sapiens, UniProt Q13133); assay: cell-based GAL4-LXRα luciferase reporter assay; conditions: 293 cells with GAL4 DNA-binding domain fused to LXRα ligand-binding domain, UAS luciferase reporter; concentration producing 50% of maximal luciferase activity
T1 construct: expressed in transfected cells; host or cells: 293 cells
T1 sequence (Q13133 209-447 limits assumed): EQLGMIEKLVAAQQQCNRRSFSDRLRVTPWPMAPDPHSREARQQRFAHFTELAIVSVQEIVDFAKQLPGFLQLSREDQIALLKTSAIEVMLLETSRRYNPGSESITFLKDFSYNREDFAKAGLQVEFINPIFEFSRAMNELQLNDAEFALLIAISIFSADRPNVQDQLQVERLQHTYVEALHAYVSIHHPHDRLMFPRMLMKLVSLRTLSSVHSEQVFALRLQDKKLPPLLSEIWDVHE
From the text: (§1) LXRα agonist activity can be characterized in a cell-based assay or a peptide-sensor assay. The same assays can be utilized to characterize LXRα antagonist activity, by evaluating the ability of a compound to block the effects of an LXRα agonist, such as 24,25-epoxycholesterol.
Briefly, for the cell-based assay, a DNA-binding domain of the nonreceptor transcription factor GAL4 was fused to the putative ligand-binding domain of LXRα. The resultant construct was introduced into 293 cells, together with UAS-containing luciferase reporter construct. The transfected cells were then treated with chemical libraries and luciferase activity was measured. Individual compounds were evaluated relative to a control (no addition of compound) and the EC50 was determined as the concentration necessary to produce 50% of the maximal luciferase activity.

LXRα [2] = biological target: T2, LXRα (Homo sapiens, UniProt Q13133); assay: peptide sensor LXR assay (in vitro); assay type: biochemical
T2 sequence (Q13133 1-447): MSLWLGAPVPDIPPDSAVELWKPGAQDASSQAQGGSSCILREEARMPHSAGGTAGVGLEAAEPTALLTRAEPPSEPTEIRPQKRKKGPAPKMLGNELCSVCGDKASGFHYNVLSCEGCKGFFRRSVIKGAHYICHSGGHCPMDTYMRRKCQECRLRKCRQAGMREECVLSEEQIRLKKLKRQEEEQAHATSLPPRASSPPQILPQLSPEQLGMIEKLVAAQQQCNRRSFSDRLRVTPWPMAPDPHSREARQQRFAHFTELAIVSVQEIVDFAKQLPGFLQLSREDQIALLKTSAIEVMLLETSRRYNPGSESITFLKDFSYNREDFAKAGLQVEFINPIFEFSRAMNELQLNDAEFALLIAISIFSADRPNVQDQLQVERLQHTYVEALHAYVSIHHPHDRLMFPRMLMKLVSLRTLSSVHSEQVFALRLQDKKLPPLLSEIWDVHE
Method: as §1
The peptide sensor LXR assay is an in vitro assay and was conducted as generally described in co-pending applications Ser. Nos. 08/975,614 (filed Nov. 21, 1997) and 09/163,713 (filed Sep. 30, 1998).

O=S(=O)(Nc1ccc(C(O)(C(F)(F)F)C(F)(F)F)cc1)c1ccccc1 [Compound 2]
EC50 (LXRα [1]): < 2 µM | EC50 (LXRα [2]): < 2 µM

Source: patent publication US6316503A, “LXR modulators” (Tularik Inc., priority 2000, dated 2001)
